Data from the NIST ThermoML archive (doi:10.1021/acs.jced.5b00752).
Where “and” joins values, the source holds several entries; their conditions need not be identical. Identical values can stand only once.

Settings: Closed cell (Static) method

[CH]1C=CC=C1.[CH]1C=CC=C1.[Fe] [ferrocene]
Settings	vapor or sublimation pressure
312.2 K, Crystal	0.00369 kPa
312.21 K, Crystal	0.00359 kPa
322.21 K, Crystal	0.009 kPa and 0.00911 kPa
332.2 K, Crystal	0.02078 kPa
332.21 K, Crystal	0.02086 kPa and 0.02071 kPa
342.18 K, Crystal	0.04497 kPa and 0.04517 kPa
352.17 K, Crystal	0.0934 kPa [middle of 4 runs]
352.18 K, Crystal	0.09249 kPa and 0.09264 kPa and 0.09328 kPa
352.19 K, Crystal	0.0936 kPa
362.17 K, Crystal	0.1851 kPa and 0.185 kPa
362.18 K, Crystal	0.1854 kPa
372.2 K, Crystal	0.3543 kPa
382.19 K, Crystal	0.6508 kPa
392.2 K, Crystal	1.158 kPa
402.26 K, Crystal	2.001 kPa
402.31 K, Crystal	2.008 kPa
412.24 K, Crystal	3.346 kPa
412.32 K, Crystal	3.361 kPa
422.29 K, Crystal	5.47 kPa
422.4 K, Crystal	5.502 kPa
432.42 K, Crystal	8.756 kPa
442.26 K, Crystal	13.53 kPa
452.08 K, Liquid	19.48 kPa

c1ccc2ccccc2c1 [naphthalene]
Settings	vapor or sublimation pressure
312.2 K, Crystal	0.04084 kPa and 0.04083 kPa
317.21 K, Crystal	0.06326 kPa
322.21 K, Crystal	0.09622 kPa
327.21 K, Crystal	0.1447 kPa
332.21 K, Crystal	0.2153 kPa
337.21 K, Crystal	0.315 kPa and 0.3154 kPa
342.19 K, Crystal	0.4556 kPa
347.19 K, Crystal	0.651 kPa
352.19 K, Crystal	0.9213 kPa
357.19 K, Liquid	1.2 kPa
362.2 K, Liquid	1.521 kPa
367.21 K, Liquid	1.915 kPa and 1.914 kPa
372.22 K, Liquid	2.393 kPa
377.22 K, Liquid	2.966 kPa and 2.967 kPa
382.22 K, Liquid	3.657 kPa
387.23 K, Liquid	4.475 kPa and 4.476 kPa
392.24 K, Liquid	5.45 kPa
397.27 K, Liquid	6.593 kPa and 6.596 kPa
402.37 K, Liquid	7.962 kPa
407.32 K, Liquid	9.502 kPa
412.4 K, Liquid	11.33 kPa
422.55 K, Liquid	15.88 kPa
432.58 K, Liquid	21.75 kPa
442.46 K, Liquid	29.18 kPa
452.37 K, Liquid	38.57 kPa

CCOC(=O)c1ccccc1C(=O)OCC [diethyl phthalate]
Liquid
Settings	vapor or sublimation pressure
312.21 K	0.00032 kPa and 0.00035 kPa
322.21 K	0.00105 kPa and 0.00103 kPa
332.21 K	0.00269 kPa
342.19 K	0.00623 kPa
352.18 K	0.01358 kPa
352.2 K	0.01352 kPa
362.2 K	0.02775 kPa
372.19 K	0.05429 kPa
372.2 K	0.05407 kPa
372.22 K	0.05424 kPa
382.23 K	0.1008 kPa
392.24 K	0.1821 kPa
402.37 K	0.3169 kPa
412.38 K	0.5303 kPa
422.49 K	0.8621 kPa
442.28 K	2.082 kPa
452.12 K	3.099 kPa

CC[N-]C.CC[N-]C.CC[N-]C.CC[N-]C.[Hf+4] [tetrakis(ethylmethylamino)hafnium]
Crystal
Settings	vapor or sublimation pressure [kPa]
312.19 K	0.00296
322.2 K	0.00715
332.2 K	0.01587
342.18 K	0.03287
352.19 K	0.0644
362.19 K	0.121
372.21 K	0.216
382.21 K	0.37
392.24 K	0.591
